From patent publication US20250129069A1, “TRIAZOLO WRN INHIBITORS” (Nimbus Wadjet, Inc., priority 2023, published 2025)

Assays:
[1] = system: p21 induction in HCT 116 cells; test: p21 induction in cells (In-Cell Western, p21/GAPDH ratio); assay type: cell-based; settings: Homo sapiens, 24 h compound incubation, read-out: p21_EC50
Method in brief: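 HCT 116 cells treated 24 h at 37° C with 11-point, 2-fold dilutions typically from 10 μM, in duplicate. Fixed cells co-stained for p21 (800 nm) and GAPDH (700 nm) by In-Cell Western. p21/GAPDH ratio normalised between DMSO and reference WRN inhibitor controls, and EC50 obtained by nonlinear regression.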

[2] = biological target: human Werner helicase (WRN, amino acids 517-1235 with L1074F point mutation) (Homo sapiens (Human), UniProt Q14191, L1074F); test: WRN (BV08) ADP-Glo assay; assay type: biochemical; settings: human WRN (aa 517-1235, L1074F), read-out: ADP-Glo_hWRN_IC50
human Werner helicase (WRN, amino acids 517-1235 with L1074F point mutation), sequence (Q14191 other isoform, or with tags, fused parts or gaps L1074F (already in the parent)): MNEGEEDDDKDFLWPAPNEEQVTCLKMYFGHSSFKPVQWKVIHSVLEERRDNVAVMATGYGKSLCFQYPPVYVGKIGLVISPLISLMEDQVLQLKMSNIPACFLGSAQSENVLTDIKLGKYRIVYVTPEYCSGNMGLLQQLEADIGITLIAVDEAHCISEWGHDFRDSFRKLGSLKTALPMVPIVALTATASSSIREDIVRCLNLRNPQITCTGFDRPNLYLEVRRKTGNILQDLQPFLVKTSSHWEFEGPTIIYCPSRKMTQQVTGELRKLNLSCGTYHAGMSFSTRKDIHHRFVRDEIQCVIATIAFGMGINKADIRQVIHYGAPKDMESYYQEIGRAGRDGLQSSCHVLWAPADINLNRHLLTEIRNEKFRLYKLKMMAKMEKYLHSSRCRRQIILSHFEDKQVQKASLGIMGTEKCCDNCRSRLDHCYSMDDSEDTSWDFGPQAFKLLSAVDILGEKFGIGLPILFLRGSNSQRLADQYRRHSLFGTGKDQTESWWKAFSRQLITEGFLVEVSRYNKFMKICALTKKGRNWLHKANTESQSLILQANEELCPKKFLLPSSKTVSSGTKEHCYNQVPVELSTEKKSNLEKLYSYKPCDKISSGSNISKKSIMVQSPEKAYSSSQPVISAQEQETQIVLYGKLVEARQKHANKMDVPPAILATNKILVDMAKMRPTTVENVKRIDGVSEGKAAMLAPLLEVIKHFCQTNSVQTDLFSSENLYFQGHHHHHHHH
Method in brief: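 Untagged WRN 517-1235 (L1074F), Sf9/baculovirus-expressed, 0.15 nM, preincubated 15 min with compound, then 5 μM ATP and 0.1 nM annealed DNA duplex added; 60 min at 25 °C in Bicine pH 7.5, 1 mM MgCl2, 1% DMSO. ADP-Glo luminescence; % inhibition vs DMSO and 20 μM NSC-617145 controls, four-parameter IC50 fit.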

EC50 [1] [nM] | IC50 [2] [nM] | Compound
> 5000 | 5 to 50 | CCc1c(N2CCN(C(=O)c3ccccc3C(=O)O)CC2)c(=O)c2nn(-c3ccnc(OC)c3)nc2n1CC(=O)NC12CC(C3CC3)(C1)C2 [Compound I-161, 2-(4-{4-[{{3-cyclopropylbicyclo[1.1.1]pentan-1-yl}carbamoyl)methyl]-5-ethyl-2-(2-methoxypyridin-4-yl)-7-oxo-2H,4H,7H-[1,2,3]triazolo[4,5-b]pyridin-6-yl}piperazine-1-carbonyl)benzoic acid]
≤ 500 | 5 to 50 | CCc1c(N2CCN(C(=O)OC)[C@H]3CC[C@@H]32)c(=O)c2nn(C3=CCOCC3)nc2n1CC(=O)NC12CC(C(C)C)(C1)C2 [Compound I-162, methyl (1S,6S)-5-[2-(3,6-dihydro-2H-pyran-4-yl)-5-ethyl-7-oxo-4-({[3-(propan-2-yl)bicyclo[1.1.1]pentan-1-yl]carbamoyl}methyl)-2H,4H,7H-[1,2,3]triazolo[4,5-b]pyridin-6-yl]-2,5-diazabicyclo[4.2.0]octane-2-carboxylate]
> 5000 | 5 to 50 | CCc1c(N2CCN(C(=O)c3ncnc(C)c3O)[C@H]3CC[C@@H]32)c(=O)c2nn(-c3ncccc3F)nc2n1CC(=O)NC12CC(C(C)C)(C1)C2 [Compound I-163, 2-[5-ethyl-2-(3-fluoropyridin-2-yl)-6-[(1S,6S)-5-(5-hydroxy-6-methylpyrimidine-4-carbonyl)-2,5-diazabicyclo[4.2.0]octan-2-yl]-7-oxo-2H,4H,7H-[1,2,3]triazolo[4,5-b]pyridin-4-yl]-N-[3-(propan-2-yl)bicyclo[1.1.1]pentan-1-yl]acetamide]
≤ 500 | 5 to 50 | CCc1c(N2CCN(C(=O)c3ncnc(C)c3O)[C@H]3CC[C@@H]32)c(=O)c2nn(C3=CC(C)OCC3)nc2n1CC(=O)NC12CC(C3CC3)(C1)C2 (stereo partly drawn) [Compound I-164, N-{3-cyclopropylbicyclo[1.1.1]pentan-1-yl}-2-{5-ethyl-6-[(1S,6S)-5-(5-hydroxy-6-methylpyrimidine-4-carbonyl)-2,5-diazabicyclo[4.2.0]octan-2-yl]-2-(6-methyl-3,6-dihydro-2H-pyran-4-yl)-7-oxo-2H,4H,7H-[1,2,3]triazolo[4,5-b]pyridin-4-yl}acetamide]
500 to 2000 | 5 to 50 | CCc1c(N2CCN(C(=O)c3cc(N4CCN(C)CC4)ccc3OC)[C@H]3CC[C@@H]32)c(=O)c2nn(C3=CCOCC3)nc2n1CC(=O)NC12CC(C(C)C)(C1)C2 [Compound I-165, 2-[2-(3,6-dihydro-2H-pyran-4-yl)-5-ethyl-6-[(1S,6S)-5-[2-methoxy-5-(4-methylpiperazin-1-yl)benzoyl]-2,5-diazabicyclo[4.2.0]octan-2-yl]-7-oxo-2H,4H,7H-[1,2,3]triazolo[4,5-b]pyridin-4-yl]-N-[3-(propan-2-yl)bicyclo[1.1.1]pentan-1-yl]acetamide]
500 to 2000 | 5 to 50 | CCc1c(N2CCN(C(=O)c3[nH]ncc3OC)[C@H]3CC[C@@H]32)c(=O)c2nn(C3=CCOCC3)nc2n1CC(=O)NC12CC(C(C)C)(C1)C2 [Compound I-166, 2-[2-(3,6-dihydro-2H-pyran-4-yl)-5-ethyl-6-[(1S,6S)-5-(4-methoxy-1H-pyrazole-5-carbonyl)-2,5-diazabicyclo[4.2.0]octan-2-yl]-7-oxo-2H,4H,7H-[1,2,3]triazolo[4,5-b]pyridin-4-yl]-N-[3-(propan-2-yl)bicyclo[1.1.1]pentan-1-yl]acetamide]
500 to 2000 | 5 to 50 | CCc1c(N2CCN(C(=O)c3ncncc3OC)[C@H]3CC[C@@H]32)c(=O)c2nn(C3=CCOCC3)nc2n1CC(=O)NC12CC(C(C)C)(C1)C2 [Compound I-167, 2-[2-(3,6-dihydro-2H-pyran-4-yl)-5-ethyl-6-[(1S,6S)-5-(5-methoxypyrimidine-4-carbonyl)-2,5-diazabicyclo[4.2.0]octan-2-yl]-7-oxo-2H,4H,7H-[1,2,3]triazolo[4,5-b]pyridin-4-yl]-N-[3-(propan-2-yl)bicyclo[1.1.1]pentan-1-yl]acetamide]
500 to 2000 | 5 to 50 | CCc1c(N2CCN(C(=O)c3c(C#N)cncc3OC)[C@H]3CC[C@@H]32)c(=O)c2nn(C3=CCOCC3)nc2n1CC(=O)NC12CC(C(C)C)(C1)C2 [Compound I-168, 2-{6-[(1S,6S)-5-(3-cyano-5-methoxypyridine-4-carbonyl)-2,5-diazabicyclo[4.2.0]octan-2-yl]-2-(3,6-dihydro-2H-pyran-4-yl)-5-ethyl-7-oxo-2H,4H,7H-[1,2,3]triazolo[4,5-b]pyridin-4-yl}-N-[3-(propan-2-yl)bicyclo[1.1.1]pentan-1-yl]acetamide]
2000 to 5000 | 5 to 50 | CCc1c(N2CCN(C(=O)c3cccc(N4CCN(C)CC4)c3OC)[C@H]3CC[C@@H]32)c(=O)c2nn(C3=CCOCC3)nc2n1CC(=O)NC12CC(C(C)C)(C1)C2 [Compound I-169, 2-[2-(3,6-dihydro-2H-pyran-4-yl)-5-ethyl-6-[(1S,6S)-5-[2-methoxy-3-(4-methylpiperazin-1-yl)benzoyl]-2,5-diazabicyclo[4.2.0]octan-2-yl]-7-oxo-2H,4H,7H-[1,2,3]triazolo[4,5-b]pyridin-4-yl]-N-[3-(propan-2-yl)bicyclo[1.1.1]pentan-1-yl]acetamide]
> 5000 | 5 to 50 | CCc1c(N2CCN(C(=O)c3[nH]cnc3C#N)[C@H]3CC[C@@H]32)c(=O)c2nn(C3=CCOCC3)nc2n1CC(=O)NC12CC(C(C)C)(C1)C2 [Compound I-170, 2-{6-[(1S,6S)-5-(4-cyano-1H-imidazole-5-carbonyl)-2,5-diazabicyclo[4.2.0]octan-2-yl]-2-(3,6-dihydro-2H-pyran-4-yl)-5-ethyl-7-oxo-2H,4H,7H-[1,2,3]triazolo[4,5-b]pyridin-4-yl}-N-[3-(propan-2-yl)bicyclo[1.1.1]pentan-1-yl]acetamide]
≤ 500 | ≤ 5 | CCc1c(N2CCN(C(=O)c3nocc3O)[C@H]3CC[C@@H]32)c(=O)c2nn(C3=CCOCC3)nc2n1CC(=O)NC12CC(C(C)C)(C1)C2 [Compound I-171, 2-[2-(3,6-dihydro-2H-pyran-4-yl)-5-ethyl-6-[(1S,6S)-5-(4-hydroxy-1,2-oxazole-3-carbonyl)-2,5-diazabicyclo[4.2.0]octan-2-yl]-7-oxo-2H,4H,7H-[1,2,3]triazolo[4,5-b]pyridin-4-yl]-N-[3-(propan-2-yl)bicyclo[1.1.1]pentan-1-yl]acetamide]
≤ 500 | 5 to 50 | CCc1c(C2=CCN(C(=O)c3ncnc(C)c3O)CC2(C)C)c(=O)n2nc(C3=CCOCC3)nc2n1CC(=O)Nc1ccc(C(F)(F)F)cc1Cl [Compound I-174, N-[2-chloro-4-(trifluoromethyl)phenyl]-2-[2-(3,6-dihydro-2H-pyran-4-yl)-5-ethyl-6-[1-(5-hydroxy-6-methylpyrimidine-4-carbonyl)-3,3-dimethyl-1,2,3,6-tetrahydropyridin-4-yl]-7-oxo-4H,7H-[1,2,4]triazolo[1,5-a]pyrimidin-4-yl]acetamide]
≤ 500 | 5 to 50 | CCc1c(N2CCN(C(=O)c3csnc3OC)[C@H]3CC[C@@H]32)c(=O)c2nn(C3=CCOCC3)nc2n1CC(=O)NC12CC(C(C)C)(C1)C2 [Compound I-175, 2-[2-(3,6-dihydro-2H-pyran-4-yl)-5-ethyl-6-[(1S,6S)-5-(3-methoxy-1,2-thiazole-4-carbonyl)-2,5-diazabicyclo[4.2.0]octan-2-yl]-7-oxo-2H,4H,7H-[1,2,3]triazolo[4,5-b]pyridin-4-yl]-N-[3-(propan-2-yl)bicyclo[1.1.1]pentan-1-yl]acetamide]
≤ 500 | ≤ 5 | CCc1c(N2CCN(C(=O)c3c(OC)ncc(F)c3O)[C@H]3CC[C@@H]32)c(=O)c2nn(-c3ccnc(OC)c3)nc2n1CC(=O)NC12CC(C(C)C)(C1)C2 [Compound I-177, 2-{5-ethyl-6-[(1S,6S)-5-(5-fluoro-4-hydroxy-2-methoxypyridine-3-carbonyl)-2,5-diazabicyclo[4.2.0]octan-2-yl]-2-(2-methoxypyridin-4-yl)-7-oxo-2H,4H,7H-[1,2,3]triazolo[4,5-b]pyridin-4-yl}-N-[3-(propan-2-yl)bicyclo[1.1.1]pentan-1-yl]acetamide]
500 to 2000 | 5 to 50 | CCc1c(N2CCN(C(=O)c3ncnc(C)c3O)[C@H](C)C2)c(=O)c2nn(-c3ccnc(OC)c3)nc2n1CC(=O)NC12CC(C3CC3)(C1)C2 [Compound I-178, N-{3-cyclopropylbicyclo[1.1.1]pentan-1-yl}-2-{5-ethyl-6-[(3R)-4-(5-hydroxy-6-methylpyrimidine-4-carbonyl)-3-methylpiperazin-1-yl]-2-(2-methoxypyridin-4-yl)-7-oxo-2H,4H,7H-[1,2,3]triazolo[4,5-b]pyridin-4-yl}acetamide]
≤ 500 | 5 to 50 | CCc1c(N2CCN(C(=O)c3ncnc(C)c3O)[C@H]3CC[C@@H]32)c(=O)c2nn(-c3cccc(C)n3)nc2n1CC(=O)NC12CC(C(C)C)(C1)C2 [Compound I-179, 2-{5-ethyl-6-[(1S,6S)-5-(5-hydroxy-6-methylpyrimidine-4-carbonyl)-2,5-diazabicyclo[4.2.0]octan-2-yl]-2-(6-methylpyridin-2-yl)-7-oxo-2H,4H,7H-[1,2,3]triazolo[4,5-b]pyridin-4-yl}-N-[3-(propan-2-yl)bicyclo[1.1.1]pentan-1-yl]acetamide]
